Assay results: US20170290814A1, “METHODS OF TREATMENT OF CHOLESTASIS AND FIBROSIS” (GENFIT, priority 2016, published 2017)

Test system: TGFβ1-induced expression of COL1A1 protein in human HSC
Experiment: Col1α1 ELISA on supernatants of TGFβ1-activated human HSC
Assay type: cell-based
Conditions: 48 h
Description: The human primary hepatic stellate cells (hHSC) (Innoprot) were cultured in STeCM medium (ScienCell cat #5301) that was supplemented with 2% fetal bovine serum (FBS, ScienCell cat #0010), 1% penicillin/streptomycin (ScienCell cat #0503) and stellate cell growth supplement (SteCGS; ScienCell cat #5352). Cell culture flasks were coated with Poly-L Lysine (Sigma cat #P4707) for a better adherence.
The human primary hepatic stellate cells (hHSC) (Innoprot) were cultured under standard conditions, as described above. The cells were subsequently plated at a density of 2×10^4cells/well or 6,5×10^3 cells/well into 96-well or 384-well plates respectively. The next day, cell-culture medium was removed, and cells were washed with PBS (Invitrogen cat #14190). Then, hHSC were deprived for 24 hours in serum-free and SteCGS-free medium. For the treatments with compounds of formula (I), the serum-deprived hHSC were preincubated for 1 hour with the compounds followed by addition of the profibrogenic stimuli TGFβ1 (PeproTech cat #100-21, 1 ng/mL) in serum-free and SteCGS-free medium for an additional 48 hour period. At the end of treatment, the cell culture supernatants of treated-HSC were transferred into a new plate before storage at −20° C.The cells were washed with PBS (Invitrogen, cat #14190) before the addition of lysis buffer (CelLytic™ MT reagent; Sigma #C3228). Plates were then incubated for 30 min on ice using a plate shaker, before storage at −20° C.
The level of the human pro-Collagen α1 (col1α1) was measured using a Sandwich ELISA (R&D systems,). Briefly, the wells of an ELISA plate were first coated with the capture antibody at room temperature overnight. After 3 washes in PBS +0.05% Tween 20, a blocking solution consisting of PBS +1% BSA was added for one hour followed by another washing cycle. […]
Serum-deprived HSC were preincubated for 1 hour with RM-5061 before the activation with the profibrogenic cytokine TGFβ1 (1 ng/ml). After 48 hours of incubation, the cellular α-SMA content as well as secreted COL1A1 were measured by ELISA. […]

SMILES: CC(C)(C)[C@H](N)C(=O)Oc1ccccc1C(=O)Nc1ncc([N+](=O)[O-])s1 [RM-5061, (S)-2-(5-nitrothiazol-2-ylcarbamoyl)phenyl 2-amino-3,3-dimethylbutanoate]
- effect on COL1A1 in human HSC (TGFβ1 1 ng/ml): reduced in a comparable manner
- IC50 (secreted COL1A1, TGFβ1 1 ng/ml): 2.67 µM
- Max % I Over TGFβ, COL1A1 (secreted COL1A1, TGFβ1 1 ng/ml): 43%
